From patent US20260062422A1 (Halda Therapeutics OpCo, Inc., priority 2022, published 2026)

Key:
[1] = target: T1, androgen receptor (Homo sapiens, UniProt P10275); assay: Assay for binding affinity to androgen receptor ([3H]methyltrienolone radioligand, cell cytosol); settings: 1 nM [3H]methyltrienolone, 24 hours at 4° C., Table 5
T1 sequence (P10275 1-920 T878A): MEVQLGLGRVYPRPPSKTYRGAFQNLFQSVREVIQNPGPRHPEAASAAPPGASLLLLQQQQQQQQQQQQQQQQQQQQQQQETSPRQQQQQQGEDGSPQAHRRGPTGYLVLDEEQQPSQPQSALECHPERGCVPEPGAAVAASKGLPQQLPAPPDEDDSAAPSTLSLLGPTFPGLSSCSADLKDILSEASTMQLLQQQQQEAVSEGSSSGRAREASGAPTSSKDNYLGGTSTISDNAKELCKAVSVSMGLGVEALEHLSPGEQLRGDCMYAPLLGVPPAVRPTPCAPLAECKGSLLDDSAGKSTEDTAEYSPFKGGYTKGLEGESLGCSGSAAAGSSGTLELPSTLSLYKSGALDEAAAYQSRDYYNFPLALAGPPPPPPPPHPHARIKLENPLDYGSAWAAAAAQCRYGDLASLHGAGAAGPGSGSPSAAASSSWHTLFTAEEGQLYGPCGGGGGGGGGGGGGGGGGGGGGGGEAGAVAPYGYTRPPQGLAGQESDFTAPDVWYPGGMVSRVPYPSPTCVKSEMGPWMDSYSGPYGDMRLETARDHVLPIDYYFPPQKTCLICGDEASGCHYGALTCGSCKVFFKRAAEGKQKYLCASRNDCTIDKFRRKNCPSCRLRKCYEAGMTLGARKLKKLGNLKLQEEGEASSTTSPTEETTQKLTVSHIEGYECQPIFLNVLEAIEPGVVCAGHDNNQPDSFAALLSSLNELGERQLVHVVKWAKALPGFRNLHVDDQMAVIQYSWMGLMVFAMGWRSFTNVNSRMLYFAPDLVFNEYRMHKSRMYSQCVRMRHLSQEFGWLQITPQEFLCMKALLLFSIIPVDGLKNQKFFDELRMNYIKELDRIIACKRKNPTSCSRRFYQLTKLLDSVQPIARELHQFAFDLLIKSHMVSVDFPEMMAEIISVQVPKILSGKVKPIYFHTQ
Summary of the method: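 Competition binding in cell cytosol ([…]) with 1 nM [3H]methyltrienolone, 24 hours at 4° C, in pH 7.4 Hepes-Tris buffer with 5 μM triamcinolone acetonide; nonspecific binding defined by 1 μM testosterone. Filtration and scintillation counting; values reported as % inhibition of specific binding.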

[2] = Cellular growth inhibition, T-Rex 293 SC cells with doxycycline (progesterone receptor isoform B induced), Example 45; assay type: cell-based; settings: progesterone receptor isoform B induced with 10 ng/mL doxycycline, 72 hours, CellTiter-Glo 2.0, Table 11
Experimental: The following types of cells were prepared for this experiment: (i) a T-Rex 293 cell line having increased expression of progesterone receptor isoform B protein due to exposure to doxycycline and (ii) a T-Rex 293 cell line lacking increased expression of progesterone receptor isoform B protein. Ability of the test compounds to inhibit proliferation of the foregoing cell types was evaluated according to the procedures set forth below.
The doxycycline-inducible progesterone receptor isoform B protein expressing cell line was established using the following protocol: T-Rex 293 cells were purchased from Invitrogen (Cat #R71007) and transfected using Lipofectamine 2000 with the wild-type progesterone receptor B protein sequence cloned into the pcDNA4/TO vector. Transfected cells were selected using 400 μg/mL Zeocin (Invitrogen Cat #R25001). Following selection, single clones were raised and maintained in Dulbecco's Modified Eagle Medium (DMEM) supplemented with 10% w/w Tetracycline-free fetal bovine serum (FBS) and 250 μg/mL Zeocin. Clones were analyzed for expression of progesterone receptor isoform B protein in the presence and absence of 10 ng/mL doxycycline (Sigma Cat #D9891), and a single doxycycline-inducible clone (hereinafter “SC”) was selected for use in downstream assays.
The SC cells were seeded on poly-D-lysine coated, black clear-bottom 384-well plates at 2500/well, in 25 μL Phenol Red Free Dulbecco's Modified Eagle Medium (DMEM) supplemented with 10% w/w charcoal-dextran treated fetal bovine serum (FBS) and 1% w/w pen-strep, with or without 10 ng/mL doxycycline. Pen-Strep is a commercially available mixture of penicillin G and streptomycin, which is used in mammalian cell culture media to prevent bacterial contamination. Phenol Red Free Dulbecco's Modified Eagle Medium (DMEM) supplemented with 10% w/w charcoal-dextran treated fetal bovine serum (FBS) and 1% w/w pen-strep, with or without 10 ng/mL doxycycline is herein referred to as Treatment Medium. Following seeding of cells in the plates, the plates were spun at 300×g for 30 seconds, then equilibrated to room temperature for 30 minutes, and then deposited in a humidified tissue culture incubator maintained at 37° C. with 5% CO2.
At 24 hours after seeding of the cells, dilutions of test compound were prepared in DMSO and dissolved in Treatment Medium, to achieve a final DMSO concentration of 0.5% w/w, thereby providing the Test Compound Solution. A 25 μL aliquot of the Test Compound Solution was added to cells in the well plates. An equal volume of a solution containing DMSO and Treatment Medium was used as a negative control. Following treatment of cells with Test Compound Solution or said equal volume of a solution containing DMSO and Treatment Medium, the plates were spun at 300×g for 30 seconds, and then left in an incubator for 72 hours.
At the end of the treatment duration, cell viability was quantified with CellTiter-Glo 2.0 reagent (Promega Cat #G9243). For this purpose, plates were equilibrated to room temperature for 30 minutes, and then 25 μL of CellTiter-Glo 2.0 reagent was added to cells in the plate wells. Plates were then agitated on a shaker for two minutes at 500 rpm and subsequently incubated at room temperature for 10 minutes. Following incubation, the plates were spun at 3000×g for 30 seconds, then sealed with an optical adhesive cover, and luminescence readings were measured with an EnVision Plate Reader (Perkin Elmer).
Data was normalized using zero luminescence for baseline. A four-parameter non-linear regression curve fit was applied to dose-response data in GraphPad Prism data analysis software to determine the half-maximal growth inhibitory concentration (GI50) for each test compound.

Compound | Kd [1] [nM] | GI50 [2] [nM]
Cc1sc2c(c1C)C(c1ccc(Cl)cc1)=N[C@H](CC(=O)NCCOCCOCCOCCOCCOCCOCCOC1CCN(c3ncc(C(=O)N[C@H]4C(C)(C)[C@H](Oc5ccc(C#N)c(Cl)c5)C4(C)C)cn3)CC1)c1nnc(C)n1-2 [Compound I-9] | < 50 | < 500
Cc1sc2c(c1C)C(c1ccc(OCCOC3CCN(c4ncc(C(=O)N[C@H]5C(C)(C)[C@H](Oc6ccc(C#N)c(Cl)c6)C5(C)C)cn4)CC3)cc1)=N[C@@H](CC(=O)O)c1nnc(C)n1-2 [Compound I-38] | < 50 | > 3000
Cc1sc2c(c1C)C(c1cccc(OCCOC3CCN(c4ncc(C(=O)N[C@H]5C(C)(C)[C@H](Oc6ccc(C#N)c(Cl)c6)C5(C)C)cn4)CC3)c1)=N[C@@H](CC(=O)O)c1nnc(C)n1-2 [Compound I-41] | < 50 | > 3000
CCNC(=O)C[C@@H]1N=C(c2ccc(OCCOCCOC3CCN(c4ncc(C(=O)N[C@H]5C(C)(C)[C@H](Oc6ccc(C#N)c(Cl)c6)C5(C)C)cn4)CC3)cc2)c2c(sc(C)c2C)-n2c(C)nnc21 [Compound I-44] | < 50 | < 500
CCNC(=O)C[C@@H]1N=C(c2cccc(OCCOC3CCN(c4ncc(C(=O)N[C@H]5C(C)(C)[C@H](Oc6ccc(C#N)c(Cl)c6)C5(C)C)cn4)CC3)c2)c2c(sc(C)c2C)-n2c(C)nnc21 [Compound I-46, N-((1r,3r)-3-(3-chloro-4-cyanophenoxy)-2,2,4,4-tetramethylcyclobutyl)-2-(4-(2-(3-((S)-6-(2-(ethylamino)-2-oxoethyl)-2,3,9-trimethyl-6H-thieno[3,2-f][1,2,4]triazolo[4,3-a][1,4]diazepin-4-yl)phenoxy)ethoxy)piperidin-1-yl)pyrimidine-5-carboxamide] | < 50 | < 500
CCNC(=O)C[C@@H]1N=C(c2ccc(OCCCC#Cc3ncc(C(=O)N[C@H]4C(C)(C)[C@H](Oc5ccc(C#N)c(Cl)c5)C4(C)C)cn3)cc2)c2c(sc(C)c2C)-n2c(C)nnc21 [Compound I-83] | < 50 | < 500
CCNC(=O)C[C@@H]1N=C(c2ccc(N3CCN(CC4CCN(c5ncc(C(=O)N[C@H]6C(C)(C)[C@H](Oc7ccc(C#N)c(Cl)c7)C6(C)C)cn5)CC4)CC3)cc2)c2c(sc(C)c2C)-n2c(C)nnc21 [Compound I-105, N-[3-(3-chloro-4-cyano-phenoxy)-2,2,4,4-tetramethyl-cyclobutyl]-2-[4-[[4-[4-[(9S)-9-[2-(ethylamino)-2-oxo-ethyl]-4,5,13-trimethyl-3-thia-1,8,11,12-tetrazatricyclo[8.3.0.02,6]trideca-2(6),4,7,10,12-pentaen-7-yl]phenyl]piperazin-1-yl]methyl]-1-piperidyl]pyrimidine-5-carboxamide] | < 50 | < 500
Cc1sc2c(c1C)C(c1ccc(N3CC(C4CCN(c5ncc(C(=O)N[C@H]6C(C)(C)[C@H](Oc7ccc(C#N)c(Cl)c7)C6(C)C)cn5)CC4)C3)cc1)=N[C@@H](C)c1nnc(C)n1-2 [Compound I-271] | < 50 | < 500
Cc1sc2c(c1C)C(c1ccc(OC3CC4(C3)CC3(CCN(c5ncc(C(=O)N[C@H]6C(C)(C)[C@H](Oc7ccc(C#N)c(Cl)c7)C6(C)C)cn5)CC3)C4)cc1)=N[C@@H](Cc1ncco1)c1nnc(C)n1-2 [Compound I-283] | < 50 | < 500
